Test results reported in patent US6455562B1, “Cyclic AMP-specific phosphodiesterase inhibitors” (Icos Corporation, priority 1999, dated 2002).
pIC50: −log10 of the molar value. Like-named read-outs stand apart in the source and are kept apart here.

Columns and labels:
recombinant human PDE4 [1] = conditions: reported, prior art; read-out: reported 50% Inhibitory Concentration (IC50) with respect to inhibiting recombinant human PDE4; cited from earlier work
recombinant human PDE4 [2] = test system: T1, recombinant human PDE4; assay: PDE4 inhibition, IC50 using recombinant human PDE4 (charcoal separation PDE assay); assay type: biochemical; conditions: read-out: IC50 value versus human recombinant PDE4
T1 construct: other: recombinant human PDE4
Procedure: The compounds of structural formula (II) were tested for an ability to inhibit PDE4. The ability of a compound to inhibit PDE4 activity is related to the IC50 value for the compound, i.e., the concentration of inhibitor required for 50% inhibition of enzyme activity. The IC50 value for compounds of structural formula (II) were determined using recombinant human PDE4. […]
Phosphodiesterase activity of the preparations was determined as follows. […] The [32P]5′-AMP or [32P]5′-GMP then was quantitatively converted to free [32P]phosphate and unlabeled adenosine or guanosine by the action of snake venom 5′-nucleotidase. […] PDE enzyme was present in quantities that yield <30% total hydrolysis of substrate (linear assay conditions). […] The reaction was stopped by addition of 200 μL of activated charcoal (25 mg/mL suspension in 0.1M NaH2PO4, pH 4) After centrifugation (750 X g for 3 minutes) to sediment the charcoal, a sample of the supernatant was taken for radioactivity determination in a scintillation counter and the PDE activity was calculated.

[3] = in vivo; cited from earlier work

Row | Compound | pIC50 (recombinant human PDE4 [1]) | also measured
1 | COC(=O)N1CC(c2ccc(OC)c(OC3CCCC3)c2)C(C)(C(C)=O)C1 (stereo not shown) [formula (I)] | ~8.70 | –
2 | COc1ccc([C@@H]2CN(Cc3ccccc3)C[C@@]2(C)c2nn[nH]n2)cc1OC1CCCC1 [Example 1] | – | pIC50 (recombinant human PDE4 [2]): 5.10
3 | COc1ccc([C@@H]2CNC(=O)C2)cc1OC1CCCC1 (single isomer, unassigned) [(−)-enantiomer of rolipram, R-rolipram] | – | emetic potential relative to the (+)-enantiomer (S-rolipram) [3]: about ten-fold more emetic
4 | COc1ccc(C2CNC(=O)C2)cc1OC1CCCC1 (stereo not shown) [Rolipram] | ~6.70 | –
